Laboratory results: patent publication EP0326196A2, “Aqueous pharmaceutical preparation” (AKZO N.V., priority 1988, dated 1989)
In brackets after ≈: the same amount, converted by molar mass. Where two headings read alike, the source gives them in different places.

Assays:
[1] = Solubility study of the Steroid in water / aqueous cyclodextrin solutions (phase-solubility, UV/VIS); assay type: physicochemical
Method: The solubility studies were performed according to the method described below which is well known in the litrature. Excess amounts of the Steroid were added to aqueous solutions of 2,6-dimethyl-β-cyclodextrin. These suspensions were shaken at room temperature during 5 days followed by an equilibration period of 3 days at room temperature. Then an aliquot was centrifuged and the supernatant was filtered through a 0,45 µm membrane filter (Millipore: HV4, Millex). The samples were analysed with the Perkin Elmer Lambda 5 UV/VIS spectrophotometer. The absorbance was read and compared with a blanc and standard calibration curve. […] After calculation of the amount of Steroid dissolved, a phase-solubility diagram was constructed by plotting the dissolved amounts of Steroid as a function of the concentration of 2,6-dimethyl-β-cyclodextrin (see Graph).
For comparative purposes the unexpected increase of solubility of the Steroid in water using 2,6-dimethyl-β-cyclodextrin, is compared with other more common cyclodextrins.

[2] = Intra ocular pressure on application to the eyes; assay type: in vivo; conditions: applied to the eyes; contrary to other corticosteroids
[3] = Systemic effect after local administration; assay type: in vivo; conditions: administered locally

CCC(=O)[C@@]1(C)[C@H](C)C[C@H]2[C@@H]3CCC4=CC(=O)C=C[C@]4(C)[C@H]3[C@@H](O)C[C@@]21C [Org 6216, 11β-hydroxy-16α,17α,21-trimethyl-▲¹ʼ⁴-pregnadiene-3,20-dione]
increase of the solubility (factor) [1]: 10.000 | solubility ([1]; water with 2,6-dimethyl-β-cyclodextrin, in water with 2,6-dimethyl-β-cyclodextrin, room temperature, read-out: Solubility): 9000 µg/mL (≈ 24300 µM) | solubility ([1]; water with α-cyclodextrin, in water with α-cyclodextrin, room temperature, read-out: Solubility): 40 µg/mL (≈ 108 µM) | solubility ([1]; water with β-cyclodextrin, in water with β-cylodextrin, room temperature, read-out: Solubility): 50 µg/mL (≈ 135 µM) | solubility ([1]; water with τ-cyclodextrin, in water with τ-cyclodextrin, room temperature, read-out: Solubility): 70 µg/mL (≈ 189 µM) | solubility ([1]; water, 2,6-dimethyl-beta-cyclodextrin, 2,6-dimethyl-β-cyclodextrin as solubilizing agent, about 0,28 millimol per ml, read-out: maximal solubility of the Steroid in water): 9000 to 10000 µg/mL (≈ 24300 to 27000 µM) | solubility ([1]; water, 2,6-dimethyl-beta-cyclodextrin, inclusion complex with 2,6-dimethyl-β-cyclodextrin, read-out: solubility of the Steroid in water): ~10000 µg/mL (≈ 27000 µM) | solubility ([1]; water, no cyclodextrin, read-out: Solubility without cyclodextrin): 0.7 µg/mL (≈ 1.89 µM) | solubility ([1]; water, no cyclodextrin, read-out: original solubility in water): 0.5 µg/mL (≈ 1.35 µM) | increase of the intra ocular pressure (I.O.P.) [2]: did not increase I.O.P. | systemic effect [3]: did not expose any significant systemic effect
